Data published in paper PMC11111852, “Exploration of the role of the penicillin binding protein 2c (Pbp2c) in inducible β-lactam resistance in Corynebacteriaceae” (Frontiers in Microbiology, 2024).

Legend:
Pbp2c = molecular target: T1, Pbp2c (Corynebacterium jeikeium, UniProt Q4JX88); assay: electrospray mass spectrometry of covalent adduct; assay type: binding; details: 20 uM protein, 200 uM drug, 1 h, 20 °C, 100 mM MES pH 6.4
T1 construct: residues 32-593 without N-terminal transmembrane segment; E. coli BL21(DE3); 62,975 Da; monomer

BlaCor = molecular target: T2, BlaCor (Corynebacterium jeikeium, UniProt Q4JX89); assay: electrospray mass spectrometry of covalent adduct; assay type: binding; details: not hydrolysed
T2 construct: gene jk0411; 276-residue protein with N-terminal His6-TEV tag (pET-TEV), E. coli BL21(DE3), observed mass 32,825 Da, monomer
T2 sequence (Q4JX89 entry or part of it): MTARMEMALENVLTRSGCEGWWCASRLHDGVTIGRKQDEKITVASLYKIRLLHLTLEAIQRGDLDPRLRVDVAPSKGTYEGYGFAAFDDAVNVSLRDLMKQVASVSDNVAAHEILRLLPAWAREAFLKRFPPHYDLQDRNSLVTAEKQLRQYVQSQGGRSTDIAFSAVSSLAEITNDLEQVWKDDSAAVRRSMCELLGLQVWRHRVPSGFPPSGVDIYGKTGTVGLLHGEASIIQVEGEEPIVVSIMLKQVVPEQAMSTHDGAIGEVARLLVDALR

T1 sequence (Q4JX88 entry or part of it): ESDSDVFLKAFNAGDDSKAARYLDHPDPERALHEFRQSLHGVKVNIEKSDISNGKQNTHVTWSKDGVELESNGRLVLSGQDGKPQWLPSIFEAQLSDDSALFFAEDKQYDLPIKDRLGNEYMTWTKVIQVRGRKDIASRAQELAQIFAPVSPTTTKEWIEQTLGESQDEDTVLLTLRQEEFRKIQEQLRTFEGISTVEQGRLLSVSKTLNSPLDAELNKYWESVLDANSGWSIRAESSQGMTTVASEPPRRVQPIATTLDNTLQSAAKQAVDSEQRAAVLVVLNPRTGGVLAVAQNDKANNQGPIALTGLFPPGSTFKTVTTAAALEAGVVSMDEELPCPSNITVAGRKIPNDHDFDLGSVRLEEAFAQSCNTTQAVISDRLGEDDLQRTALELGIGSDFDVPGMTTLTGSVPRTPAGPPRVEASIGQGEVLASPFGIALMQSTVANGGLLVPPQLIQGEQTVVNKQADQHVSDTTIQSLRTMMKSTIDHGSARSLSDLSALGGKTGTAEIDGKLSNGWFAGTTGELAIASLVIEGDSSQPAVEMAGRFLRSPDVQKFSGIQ

## C[C@@H](O)[C@H]1C(=O)N2C(C(=O)O)=C(SCCN=CN)C[C@H]12 [imipenem]
Pbp2c
  electrospray mass spectrometry of covalent adduct: Incubation of Pbp2c with imipenem allowed the detection of adducts

## C[C@@H](O)[C@H]1C(=O)N2C(C(=O)O)=C(S[C@@H]3CN[C@H](C(=O)N(C)C)C3)[C@H](C)[C@H]12 [meropenem]
Pbp2c
  electrospray mass spectrometry of covalent adduct: Adducts matching increments of the average mass of meropenem were also detected

## O=C(Cc1cccs1)N[C@@H]1C(=O)N2C(C(=O)O)=C(/C=C/c3ccc([N+](=O)[O-])cc3[N+](=O)[O-])CS[C@H]12 [nitrocefin]
BlaCor
  electrospray mass spectrometry of covalent adduct: the nitrocefin-BlaCor adduct was detected by mass spectrometry (data not shown)
